BindingDB's records for PubMed 39642691 (University of California San Francisco)

Target: T1, Pendrin (Homo sapiens, UniProt O43511)
T1 sequence (O43511 whole entry): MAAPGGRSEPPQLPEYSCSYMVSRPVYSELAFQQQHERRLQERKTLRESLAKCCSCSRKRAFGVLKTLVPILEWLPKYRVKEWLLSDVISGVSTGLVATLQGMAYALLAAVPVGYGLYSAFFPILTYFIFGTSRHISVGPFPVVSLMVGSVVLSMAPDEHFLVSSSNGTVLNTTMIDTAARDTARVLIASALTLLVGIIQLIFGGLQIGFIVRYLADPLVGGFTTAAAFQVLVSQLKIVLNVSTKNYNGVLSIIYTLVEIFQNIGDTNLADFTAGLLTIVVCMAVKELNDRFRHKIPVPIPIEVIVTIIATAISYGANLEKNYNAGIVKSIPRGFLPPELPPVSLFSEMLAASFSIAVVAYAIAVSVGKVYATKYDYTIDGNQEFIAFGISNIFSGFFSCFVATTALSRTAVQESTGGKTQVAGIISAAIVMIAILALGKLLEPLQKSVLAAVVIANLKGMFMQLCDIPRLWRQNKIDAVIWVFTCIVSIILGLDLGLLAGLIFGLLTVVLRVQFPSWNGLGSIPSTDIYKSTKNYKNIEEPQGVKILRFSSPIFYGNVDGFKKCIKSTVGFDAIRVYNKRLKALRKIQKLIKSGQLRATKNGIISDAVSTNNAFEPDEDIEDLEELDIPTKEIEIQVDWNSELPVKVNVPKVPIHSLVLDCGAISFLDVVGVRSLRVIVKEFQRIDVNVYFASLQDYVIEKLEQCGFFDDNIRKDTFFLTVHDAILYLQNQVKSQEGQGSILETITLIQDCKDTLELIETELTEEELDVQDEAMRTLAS
Assay: Inhibition of Pendrin (unknown origin) transfected in rat FRT cells assessed as reduction in Cl-/I- ions exchange by YFP fluorescence quenching assay

- IC50: 650 nM
Compound: Cc1oc2ccc(OCc3ccccc3Cl)cc2c1C(=O)O
